Source: patent US5304633A, “Fragments of lactoferrin having potent antimicrobial activity” (priority 1990, dated 1994)
Like-named read-outs stand apart in the source and are kept apart here. Positions of bridges follow the written chain, without caps; N, C: chain ends. Chains are numbered I, II in the order given. No end group written: not given here.

Experiments:
[1] = system: Escherichia coli; format: cell-based; conditions: 16 h
Procedure: Bactocasitone (manufactured by Difco Laboratory Co.) was dissolved at a concentration of 1% in purified water, the pH was adjusted to 7.0 with 1M sodium hydroxide, the solution was sterilized at 115° C. for 15 minutes and a basal medium (liquid medium) was prepared. Each sample was dissolved at a concentration of […] in purified water, sterilization was performed by using a sterilization filter (manufactured by […] Co.) and test media, prepared by adding samples at concentrations of 1, 5, 10, 50 and 100 ppm to the basal medium, as well as a control medium with no added samples, were prepared. […] wherein A is the difference in turbidity of the test culture medium (the difference between the turbidity of the test culture medium after 16 hours of culture and the turbidity of the test culture medium before the culturing) and B is the turbidity of the control medium (the difference between the turbidity of the control culture medium after 16 hours of culture and the turbidity of the control culture medium before the culturing). The percentages of the rate of inhibition of proliferation are not in weight (same hereinafter).

[2] = system: various fungi; conditions: 20 h
[3] = system: gram-positive bacteria and gram-negative bacteria, including aerobic and anaerobic bacteria and yeast; experiment: Antimicrobial spectrum, MIC in liquid medium (Experiment 12), overall; format: cell-based; conditions: many types of gram-positive and gram-negative bacteria and yeast; peptone or PYG medium
Procedure: The various microorganisms shown in Table 3 and in Table 4 were incubated for 16 to 20 hours in 2 ml of peptone medium which consisted of 1% Bactopeptone (manufactured by Difco Laboratory Co.), or in 2 ml of PYG medium which consisted of 1% Bactopeptone (manufactured by Difco Laboratory Co.), 1% glucose and 0.05% yeast extract. The antimicrobial peptide was added to each medium at various ratios of 0 μg/ml to 60 μg/ml. Standard bacterial strains of various microorganisms in the logarithmic phase were inoculated into the various media at a cell concentration of 10^6 /ml and incubated at 37° C., with the exception of the bacterial strains mentioned in the footnotes of the tables. The growth of the various microorganisms was studied by measuring the light absorption at 660 nm.

Compound	inhibitory rate (rate of inhibition of E. coli proliferation) ([1]; 1 ppm) [%]	inhibitory rate (rate of inhibition of E. coli proliferation) ([1]; 5 ppm) [%]	inhibitory rate (rate of inhibition of E. coli proliferation) ([1]; 10 ppm) [%]	inhibitory rate (rate of inhibition of E. coli proliferation) ([1]; 50 ppm) [%]	inhibitory rate (rate of inhibition of E. coli proliferation) ([1]; 100 ppm) [%]	concentration showing antimicrobial activity (MIC, summary of Table 7) [2]	concentration showing antimicrobial activity (MIC, summary of Tables 3 and 4) [3]
I: VSQPEATKCFQWQRNMRKVRGPPVSCIKRDSPIQCI / II: GRRRRSVQWCA (disulfide I:9-I:26, I:35-II:10) [antimicrobial peptide of Example 3]	3	86	100	100	100	–	–
CC[C@H](C)[C@@H]1NC(=O)[C@H](CO)NC(=O)[C@@H]2CCCN2C(=O)[C@H](C)NC(=O)CNC(=O)[C@H](CC(C)C)NC(=O)[C@H](CCCCN)NC(=O)[C@H](CCCCN)NC(=O)[C@H](CCSC)NC(=O)[C@H](CCCNC(=N)N)NC(=O)[C@H](Cc2c[nH]c3ccccc23)NC(=O)[C@H](CCC(N)=O)NC(=O)[C@H](Cc2c[nH]c3ccccc23)NC(=O)[C@H](CCCNC(=N)N)NC(=O)[C@H](CCCNC(=N)N)NC(=O)[C@@H](NC(=O)[C@H](CCCCN)NC(=O)[C@@H](N)Cc2ccccc2)CSSC[C@@H](C(=O)N[C@H](C(=O)N[C@@H](CCCNC(=N)N)C(=O)N[C@@H](CCCNC(=N)N)C(=O)N[C@@H](C)C(=O)N[C@@H](Cc2ccccc2)C(=O)O)C(C)C)NC(=O)[C@H]([C@@H](C)O)NC1=O [antimicrobial peptide of Example 1]	–	–	–	–	–	less than 45 μg/ml	less than 45 μg/ml
